# Laboratory results taken from ChEMBL document CHEMBL5523725, “Fragment-Based Anti-inflammatory Agent Design and Target Identification: Discovery of AF-45 as an IRAK4 Inhibitor to Treat Ulcerative Colitis and Acute Lung Injury” (J Med Chem, 2024).
# The source made the active and inactive calls. The calls are words filed in the database; no cut-off is given here.
# Experiments:
# [1] = Clearance in male Sprague-Dawley rat at 10 mg/kg, po measured upto 24 hrs; type: ADME, organism-based; settings: in vivo
# Mus musculus [2] = assay: Antiinflammatory activity in male C57BL/6 mouse model of DSS-induced ulcerative colitis assessed as restoration of protein status at 10 to 20 mg/kg, po administered for 11 days with subsequent administration of DSS for 8 days by H and E staining based analysis; type: functional, organism-based; settings: dose 10-20 mg/kg, time 11.0 day
# [3] = Stability of compound in simulated gastric fluid at 10 mg/ml incubated for 8 hrs and measured every 2 hrs hy HPLC analysis; type: ADME; settings: simulated gi fluid
# Mus musculus [4] = assay: Antiinflammatory activity in LPS induced C57BL/6 mouse model of acute lung injury assessed as reduction in inflammatory exudation in lung at 20 mg/kg, ip preadministered for 30 mins followed by LPS administration and measured after 6 hrs by H and E staining based analysis; type: functional, organism-based; settings: time 6.5 hrs
# [5] = target: T1, Lymphocyte antigen 96 (Mus musculus) (UniProt Q9JHF9); assay: Thermal stabilization of MD2 in mouse RAW264.7 cells assessed as reduction in decomposition at 10 uM at 45 to 51 degreeC measured after 4 hrs by CETSA; type: cell-based
# T1 sequence (whole entry): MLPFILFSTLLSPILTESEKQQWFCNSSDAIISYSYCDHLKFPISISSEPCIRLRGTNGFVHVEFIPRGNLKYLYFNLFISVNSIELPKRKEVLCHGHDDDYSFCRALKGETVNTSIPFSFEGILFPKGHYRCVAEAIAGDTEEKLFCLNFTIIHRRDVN
# Mus musculus [6] = assay: Antiinflammatory activity in male C57BL/6 mouse model of DSS-induced ulcerative colitis assessed as reversal of ruptured spleen at 10 to 20 mg/kg, po administered for 11 days with subsequent administration of DSS for 8 days by H and E staining based analysis; type: functional, organism-based; settings: dose 10-20 mg/kg, time 11.0 day
# Mus musculus [7] = assay: Antiinflammatory activity in LPS induced C57BL/6 mouse model of acute lung injury assessed as inhibition of IL-6 release in BALF at 20 to 40 mg/kg, ip preadministered for 30 mins followed by LPS administration and measured after 6 hrs by ELISA; type: functional, organism-based; settings: dose 20-40 mg/kg, time 6.5 hrs
# THP-1 [8] = assay: cells; settings: Homo sapiens
# Description: Antiinflammatory activity in LPS-induced human THP-1 cells assessed as inhibition of IL-6 release pretreated for 30 mins followed by LPS stimulation and measured after 24 hrs by ELISA
# Mus musculus [9] = assay: Antiinflammatory activity in LPS induced C57BL/6 mouse model of acute lung injury assessed as inhibition of TNFalpha release in serum at 20 to 40 mg/kg, ip preadministered for 30 mins followed by LPS administration and measured after 6 hrs by ELISA; type: functional, organism-based; settings: dose 20-40 mg/kg, time 6.5 hrs
# [10] = target: Cyclin-dependent kinase 16 (Homo sapiens) (UniProt Q00536); assay: Inhibition of human PCTAIREI assessed as residual activity at 10 uM by Eurofins kinase profiler method relative to control
# [11] = Stability of compound in enzyme-free simulated gastric fluid at 10 mg/ml incubated for 8 hrs and measured every 2 hrs hy HPLC analysis; type: ADME; settings: simulated gi fluid
# Mus musculus [12] = assay: Antiinflammatory activity in male C57BL/6 mouse model of DSS-induced ulcerative colitis assessed as increase in body weight at 20 mg/kg, po administered for 11 days with subsequent administration of DSS for 8 days and measured on day 11; type: functional, organism-based; settings: time 11.0 day
# Mus musculus [13] = assay: Antiinflammatory activity in male C57BL/6 mouse model of DSS-induced ulcerative colitis assessed as reduction in macrophage infiltration in colon at 10 to 20 mg/kg, po administered for 11 days with subsequent administration of DSS for 8 days by F4/80 labeling based immunohistochemistry analysis; type: functional, organism-based; settings: dose 10-20 mg/kg, time 11.0 day
# RAW264.7 [14] = assay: cells; settings: Mus musculus
# Description: Antiinflammatory activity in LPS-induced mouse RAW264.7 cells assessed as inhibition of TNF-alpha release pretreated for 30 mins followed by LPS stimulation and measured after 24 hrs by ELISA
# [15] = Stability of compound in enzyme free simulated intestinal fluid at 10 mg/ml incubated for 8 hrs and measured every 2 hrs hy HPLC analysis; type: ADME; settings: simulated gi fluid
# [16] = Oral bioavailability in male Sprague-Dawley rat at 10 mg/kg measured upto 24 hrs; type: ADME, organism-based; settings: in vivo
# J774.A1 = assay: cells; settings: Mus musculus
# Description: Antiinflammatory activity in LPS-induced mouse J774.A1 cells assessed as inhibition of IL-6 release pretreated for 30 mins followed by LPS stimulation and measured after 24 hrs by ELISA
# Mus musculus [17] = assay: Antiinflammatory activity in male C57BL/6 mouse model of DSS-induced ulcerative colitis assessed as reduction in colonic structure destruction at 10 to 20 mg/kg, po administered for 11 days with subsequent administration of DSS for 8 days by H and E staining based analysis; type: functional, organism-based; settings: dose 10-20 mg/kg, time 11.0 day
# [18] = Stability of compound in rat plasma at 10 mg/ml incubated for 8 hrs and measured every 2 hrs hy HPLC analysis; type: ADME, cell-free
# Mus musculus [19] = assay: Antiinflammatory activity in LPS induced C57BL/6 mouse model of acute lung injury assessed as inhibition of TNFalpha release in BALF at 20 to 40 mg/kg, ip preadministered for 30 mins followed by LPS administration and measured after 6 hrs by ELISA; type: functional, organism-based; settings: dose 20-40 mg/kg, time 6.5 hrs
# Mus musculus [20] = assay: Antiinflammatory activity in male C57BL/6 mouse model of DSS-induced ulcerative colitis assessed as reduction in IL-6 level in serum at 20 mg/kg, po administered for 11 days with subsequent administration of DSS for 8 days by ELISA; type: functional, organism-based; settings: time 11.0 day
# [21] = target: Aurora kinase B (Homo sapiens) (UniProt Q96GD4); assay: Inhibition of human AurB assessed as residual activity at 10 uM by Eurofins kinase profiler method relative to control
# THP-1 [22] = assay: cells; settings: Homo sapiens; remark: listed apart in the source
# Description: Antiinflammatory activity in LPS-induced human THP-1 cells assessed as inhibition of TNF-alpha release pretreated for 30 mins followed by LPS stimulation and measured after 24 hrs by ELISA
# Mus musculus [23] = assay: Antiinflammatory activity in male C57BL/6 mouse model of DSS-induced ulcerative colitis assessed as reduction in TNF-alpha level in serum at 20 mg/kg, po administered for 11 days with subsequent administration of DSS for 8 days by ELISA; type: functional, organism-based; settings: time 11.0 day
# Mus musculus [24] = assay: Antiinflammatory activity in LPS induced C57BL/6 mouse model of acute lung injury assessed as reduction in alveolar wall thickening at 20 mg/kg, ip preadministered for 30 mins followed by LPS administration and measured after 6 hrs by H and E staining based analysis; type: functional, organism-based; settings: time 6.5 hrs
# RAW264.7 [25] = assay: Antiinflammatory activity in LPS-induced mouse RAW264.7 cells assessed as inhibition of IL-6 release at 10 uM pretreated for 30 mins followed by LPS stimulation and measured after 24 hrs by ELISA relative to control; type: functional; settings: time 24.5 hrs
# RAW264.7 [26] = assay: Antiinflammatory activity in LPS-induced mouse RAW264.7 cells assessed as inhibition of IL-6 mRNA transcription pretreated for 2 hrs followed by LPS stimulation and measured after 6 hrs by RT-qPCR analysis; type: functional, cell-based; settings: dose 5-10 µM, time 8.0 hrs
# Mus musculus [27] = assay: Antiinflammatory activity in LPS induced C57BL/6 mouse model of acute lung injury assessed as reduction in over activation of spleen at 20 to 40 mg/kg, ip preadministered for 30 mins followed by LPS administration and measured after 6 hrs by F4/80 labeling based immunohistochemical analysis; type: functional, organism-based; settings: dose 20-40 mg/kg, time 6.5 hrs
# [28] = Half life in male Sprague-Dawley rat at 1 mg/kg, iv administered via tail vein and measured upto 24 hrs; type: ADME, organism-based; settings: in vivo
# Mus musculus [29] = assay: Antiinflammatory activity in LPS induced ip dosed C57BL/6 mouse model of acute lung injury assessed as reduction in […] of lung preadministered for 30 mins followed by LPS administration and measured after 6 hrs; type: functional, organism-based; settings: dose 20-40 mg/kg, time 6.5 hrs
# Chain of Cyclin-dependent kinase 16 (Homo sapiens) (Q00536 whole entry): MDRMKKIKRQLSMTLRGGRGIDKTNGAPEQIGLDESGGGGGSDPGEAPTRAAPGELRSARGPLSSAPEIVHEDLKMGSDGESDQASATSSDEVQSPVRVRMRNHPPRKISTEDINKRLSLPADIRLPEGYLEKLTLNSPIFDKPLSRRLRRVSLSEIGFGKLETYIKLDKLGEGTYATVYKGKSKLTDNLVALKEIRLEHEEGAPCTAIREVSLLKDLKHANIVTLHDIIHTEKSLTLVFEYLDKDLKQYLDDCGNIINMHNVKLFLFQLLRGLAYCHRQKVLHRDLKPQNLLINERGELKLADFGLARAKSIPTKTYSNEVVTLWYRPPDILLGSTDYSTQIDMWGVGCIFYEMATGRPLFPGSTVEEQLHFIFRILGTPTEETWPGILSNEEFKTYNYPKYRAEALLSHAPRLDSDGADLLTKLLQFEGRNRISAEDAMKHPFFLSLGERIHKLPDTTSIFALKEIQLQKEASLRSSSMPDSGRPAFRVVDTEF
# Chain of Aurora kinase B (Homo sapiens) (Q96GD4 whole entry): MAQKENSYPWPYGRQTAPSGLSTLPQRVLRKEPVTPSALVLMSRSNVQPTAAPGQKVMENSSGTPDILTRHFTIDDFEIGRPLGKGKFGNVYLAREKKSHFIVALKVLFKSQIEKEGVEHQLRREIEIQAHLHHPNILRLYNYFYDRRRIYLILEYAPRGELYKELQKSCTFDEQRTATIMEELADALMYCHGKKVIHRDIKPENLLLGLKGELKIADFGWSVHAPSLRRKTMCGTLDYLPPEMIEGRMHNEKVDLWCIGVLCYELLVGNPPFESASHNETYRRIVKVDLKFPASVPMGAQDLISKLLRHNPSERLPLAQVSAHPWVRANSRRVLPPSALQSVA
compound,measurement,setting,value
COc1cc2c(O[C@H]3CC[C@@H](N)CC3)ncnc2cc1OCc1ccccc1,CL,[1],1.48 mL/min/kg
same,Activity,Mus musculus [2],Active
same,Stability,[3],Stable
same,Activity,Mus musculus [4],Active
same,Activity,[5],inactive
same,Activity,Mus musculus [6],Active
same,Activity,Mus musculus [7],Active
same,IC50,THP-1 [8],530 nM
same,Activity,Mus musculus [9],Active
same,Activity,[10],70%
same,Stability,[11],Stable
same,Activity,Mus musculus [12],Active
same,Activity,Mus musculus [13],Active
same,IC50,RAW264.7 [14],2600 nM
same,Stability,[15],Stable
same,bioavailability,[16],28.1%
same,IC50,J774.A1,1540 nM
same,Activity,Mus musculus [17],Active
same,Stability,[18],Stable
same,Activity,Mus musculus [19],Active
same,Activity,Mus musculus [20],Active
same,Activity,[21],70%
same,IC50,THP-1 [22],600 nM
same,Activity,Mus musculus [23],Active
same,Activity,Mus musculus [24],Active
same,inhibition at 10 µM,RAW264.7 [25],92.4%
same,Activity,RAW264.7 [26],Dose-Dependent Effect
same,Activity,Mus musculus [27],Active
same,half-life,[28],2.8 h
same,Activity,Mus musculus [29],Dose-Dependent Effect
